Here are results for three compounds from patent publication US10562848B2, “Inhibitors of TNF superfamily costimulatory interactions and methods for uses of the same” (UNIVERSITY OF MIAMI, priority 2015, dated 2020).

As usually defined, the IC50 is the midpoint of a concentration-inhibition curve.

Read-outs that look alike come from different tables or passages of the source.

Experiment [1] has as its target T1, OX40-OX40L (Homo sapiens, UniProt P23510+P43489).
T1 sequence (P43489 29-214 limits assumed): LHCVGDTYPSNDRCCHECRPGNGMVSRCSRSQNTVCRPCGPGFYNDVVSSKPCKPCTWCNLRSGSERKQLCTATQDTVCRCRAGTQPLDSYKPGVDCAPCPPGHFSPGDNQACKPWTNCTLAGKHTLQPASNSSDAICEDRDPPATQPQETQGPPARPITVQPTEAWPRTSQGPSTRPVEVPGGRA
T1 sequence (P23510 51-183 limits assumed): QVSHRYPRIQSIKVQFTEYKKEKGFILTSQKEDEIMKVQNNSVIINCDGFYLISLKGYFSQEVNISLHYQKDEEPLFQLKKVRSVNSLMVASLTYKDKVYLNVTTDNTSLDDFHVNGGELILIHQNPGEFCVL
The experiment can be described thus: Cell-free ELISA-type OX40 binding inhibition assay. Conditions: Table 2. As to the method: Typical concentrations used were as follows—receptors: 0.3 μg/mL for CD40, TNF-R1, and RANK; 0.6 μg/mL for BAFF-R, OX40, and 4-1BB; and 2 μg/mL for EGF-R-ligands: 0.02 μg/mL for CD40L, TNFα, and RANKL; 0.2 μg/ml for BAFF, OX40L, 4-1BBL; and 0.3 μg/mL for EGF. Assays were done in duplicate or triplicate per plate and repeated at least three times; the averaged data were normalized and used for data fitting and analysis. Binding data were fitted using the standard log inhibitor versus response model in GraphPad Prism to determine the corresponding IC50 values.

Experiment [2] has as its system CD40L-induced AID activation in human B cells. Kind of experiment: Inhibition of CD40L-induced human B-cell function (AID activation, Ds-Red reporter, flow cytometry). Type of experiment: cell-based. The following applies: for IC50: Homo sapiens, B-cell; for inhibition of CD40L-induced human B-cell function, AID activation (in words): human B cells, flow cytometry. The protocol: Activities in blocking CD40L-induced effects were assessed in a human B cell functional assay that quantitates B-cell function by measuring AID activation via a downstream fluorescent marker using flow cytometry. Activation-induced cytidine deaminase (AID) is necessary for both class switch recombination (CSR) and somatic hypermutation (SHM) of Ig genes, which are important for the generation of high-affinity antibodies and robust humoral immune response (see Frasca et al., Methods Mol Biol 1343:107-114 (2015)). AID is encoded by the aicda gene that is exclusively expressed in B cells and is necessary for opening the DNA molecule in the switch (S) regions in order to allow CSR. […] To further validate the activity of the present compounds, an aicda-lentiviral construct containing the promoter and enhancer region of aicda fused to the reporter Ds-Red was generated and used to transfect human B cells isolated from healthy donors. In these cells, regulation of AID expression through CD40-CD40L signaling following incubation at different conditions were evaluated by Ds-Red level assessed via flow cytometry.
B cells were isolated using anti-CD19 Microbeads (Miltenyi Biotech) from PBMC collected from healthy donors, and they were purified using magnetic columns. These B cells were than transfected with an aicda-DsRed vector using a lentiviral protocol, 1.25×10^5 cells/mL of transfected B cells were stimulated with IL-4 at 0.2 μg/mL and CD40 ligand at 0.2 μg/mL in IMDM media with 10% FBS. In addition, various concentrations of candidate compounds diluted in the same media were added along with the described condition above. Also, 1 μg/ml of CpG was used as positive control for activation. After culture for 2 days at 37° C. and 5% CO2, B cells were collected, and AID activation level as represented by the level of Ds-Red expression was assessed by flow cytometry using BD LSRFortessa cell analyzer.
These are important results as they were obtained in freshly isolated human B cells, a model particularly relevant for autoimmune diseases, and they assess effects on function not just proliferation or viability.

The test system of experiment [3] is CD40L-induced MHC-II expression in human THP-1 cells. The experiment can be described thus: cells. Conditions: for IC50: Homo sapiens, THP-1, 48 h, read-out: IC50, inhibition of CD40L-induced THP-1 activation. As to the method: As a further assessment, the ability of the compounds of the disclosure to inhibit the CD40L-induced activation of THP-1 cells, which can serve as surrogate dendritic cells, was evaluated using an assay as described previously (see Margolles-Clark et al, J Mol Med 87:1133-1143 (2009)).
THP-1 human myeloid cells obtained from American Type Culture Collection (ATCC; Manasses, Va.) were cultivated in RPMI media 1640 supplemented with 10% FBS, 100 U/mL penicillin, and streptomycin 100 μg/mL to a density of 1×10^6 cells/mL. Cells were centrifuged and cultured in the same medium without FBS for a period of 24 hours. Starved cells were placed in fresh medium without FBS and stimulated with 0.5 μg/mL of rhCD154 (MegaCD40L; Enzo Life Sciences), in the presence of various concentrations of test compounds. After 48 h, cells were labeled with biotin conjugated monoclonal anti-human CD40 antibody (clone LOB7/6) (LifeSpan BioSciences, Seattle, Wash.), detected with allophycocyanin-eFluor™ 780 streptavidin (eBioscience, San Diego, Calif.), and labeled with monoclonal anti-human HLA-DR antibody APC-Alexa Fluor® 750 (clone LN3) (eBioscience, San Diego, Calif.). All cultivations were carried out for 48 h at 37° C., 90% humidity, and 5% CO2. Stained THP-1 cells were analyzed using a BD LSR II Flow Cytometer (BD Biosciences, San Jose, Calif.). Cell surface markers were quantified in live cells only after gating out 4′,6-diamidino-2-phenylindole (DAPI) labeled cells. All experiments were repeated at least three times.
Data are average±SD in live (DAPI^−) cells from five independent experiments and were analyzed by […] one-way ANOVA followed by Dunnett's multiple comparison test, *p<0.05, **p<0.01, ****p<0.0001 vs. cells+huCD40L.

In experiment [4] the test system is CD40L-induced proliferation of human CD19+ B cells. The experiment can be described thus: Inhibition of CD40L-induced human CD19+ B-cell proliferation (BrdU). The class given is cell-based. Conditions: for IC50: B-cell. The protocol:
Because CD40 stimulation is an important signal for B cell proliferation, soluble CD40L can concentration-dependently induce the proliferation of human B cells.
Inhibition of cell proliferation was determined in freshly isolated human CD19^+ B cells using the colorimetric cell proliferation ELISA BrdU kit from Roche Applied Science (Indianapolis, Ind.). B cells were isolated from the PBMC as follows. Briefly, cells were washed three times with medium (RPMI 1640) and incubated for 20 min at 4° C. with 20 μL/10^7 cells of anti-CD19 Microbeads (Miltenyi Biotech, Bergisch Gladbach, Germany), according to the MiniMacs protocol (Miltenyi Biotech). Cells were then purified using magnetic columns. […] Cells were cultured in 96 wells plates (100 μL/well) at a cell density of 2×10^5 cells/mL in IMDM medium supplemented with 5% FBS, 100 U/mL penicillin, streptomycin 100 μg/mL, insulin-transferrin-selenium-G (all materials from Invitrogen, San Diego, Calif.) and 10 […] (R&D Systems). […] After 48 h, BrdU labeling solution was added as recommended, and cells were cultivated for another 48 h. Detection of incorporated BrdU was carried out following the instructions of the ELISA BrdU kit.
Data are average±SD for n=3 independent experiments with triplicates for each condition using a standard BrdU assay (Roche).

[5] abbreviates: 48 h, read-out: IC50, inhibition of CD40L-induced AID activation.

As for `O=C(Nc1ccc(-c2ccc(C(=O)Nc3cccc4cccc(S(=O)(=O)O)c34)cc2)cc1)c1ccc([N+](=O)[O-])cc1` [Compound 21041, 8-[(4′-[4-nitrobenzamido]biphenyl-4-yl-carbonyl)amino]naphthalene-1-sulfonic acid], the IC50 in experiment [1] was 605 µM; in experiment [2] (setting [5]) it was 13.2 µM; in experiment [2] (read-out: IC50 B Cell), 13.2 µM; in experiment [3], roughly 10 µM. Besides, the “inhibition of CD40L-induced human B-cell function, AID activation (in words)” value (“inhibition … AID activation (in words)” for short) in experiment [2] is “concentration-dependent inhibition”. In experiment [3], the “inhibition of CD40L-induced MHC-II expression in THP-1 cells (in words)” value (shortened to “inhibition … in THP-1 cells (in words)”) is listed as “concentration-dependent inhibition”. For the same compound, the “inhibition of CD40L-induced human CD19+ B-cell proliferation (in words)” value in experiment [4] was “concentration-dependent inhibition”.
With `COC(=O)c1ccc(C(=O)Nc2ccc(-c3ccc(C(=O)Nc4cccc5cccc(S(=O)(=O)O)c45)cc3)cc2)cc1` [Compound 21045], the IC50 is 135 µM in experiment [1], 4.5 µM in experiment [2] (setting [5]), 4.5 µM in experiment [2] (read-out: IC50 B Cell) and roughly 20 µM in experiment [4]. The “inhibition … AID activation (in words)” value in experiment [2] was “concentration-dependent inhibition”. Besides, in experiment [3], the “inhibition … in THP-1 cells (in words)” value is listed as “concentration-dependent inhibition”. Further, the “inhibition of CD40L-induced human CD19+ B-cell proliferation (in words)” value in experiment [4] is listed as “concentration-dependent inhibition”.
With `O=C(Nc1ccc(-c2ccc(C(=O)Nc3ccc(C(=O)O)c4ccccc34)cc2)cc1)c1ccc([N+](=O)[O-])cc1` [Compound 25441], the IC50 was 2.7 µM in experiment [1]; 15.9 µM in experiment [2] (setting [5]); 15.9 µM in experiment [2] (read-out: IC50 B Cell); roughly 10 µM in experiment [3]; roughly 20 µM in experiment [4]. Moreover, in experiment [2], the “inhibition … AID activation (in words)” value was “concentration-dependent inhibition”. In addition, in experiment [3], the “inhibition … in THP-1 cells (in words)” value is on record as “concentration-dependent inhibition”. In addition, the “inhibition of CD40L-induced human CD19+ B-cell proliferation (in words)” value in experiment [4] is “concentration-dependent inhibition”.
